Measurements: paper PMC9178925 (Biochemical pharmacology, 2022)
“And” between values parts separate entries of the source, which are not always exact repeats. Equal entries are not always repeated.

What was measured:
[1] = biological target: α1β2(N265S)γ2S GABAAR (Rattus norvegicus, UniProt P62813+P63138, N289S); assay: Two-electrode voltage clamp, potentiation of low GABA currents in oocytes; format: cell-based, rat (β2 rat or human)
[2] = biological target: α1β2γ2S GABAAR (Rattus norvegicus, UniProt P62813+P63138); format: cell-based, rat (β2 rat or human); settings: 10 μM loreclezole, n = 5 oocytes
[3] = biological target: T1, α1β2γ2L GABAAR (Rattus norvegicus, UniProt P62813+P63138); assay: Two-electrode voltage clamp, concentration-response and mechanistic; format: cell-based, rat (β2 rat or human)
[4] = biological target: T1, α1β2γ2L GABAAR; assay: Functional competition assay

[Cl-].[Cl-].[Zn+2] [ZnCl2]
change of GABA responses (positive = potentiation) ([1]; 10 μM ZnCl2 pre-applied 60 s then co-applied with GABA): +11 ± 1%

Cl/C(=C\n1cncn1)c1ccc(Cl)cc1Cl [loreclezole, reference compound]
potentiation of the responses to low GABA [2]: 269 ± 46%
potentiation of the responses to low GABA ([1]; 10 μM loreclezole, n = 4 oocytes): 36 ± 6%
EC50 [3]: 3.4 ± 0.6 µM
Kd [3]: 7.1 ± 2 µM
cLor ([3]; 10 μM GABA, Eq. 1, n = 6 oocytes): 0.251 ± 0.049 and 0.251
nH ([3]; loreclezole, 10 μM GABA, Hill equation): 1.27 ± 0.41
potentiation of the peak response to GABA ([4]; 10 μM loreclezole, 0.75 μM GABA): 643 ± 91%
enhancement of the peak response from receptors activated by R(+)-etomidate ([4]; 10 μM loreclezole, 1 μM R(+)-etomidate): 395 ± 48%
PA of the peak response ([4]; 0.2–0.5 μM GABA + 3 μM loreclezole): 0.08 ± 0.05

CC(=O)[C@H]1CC[C@H]2[C@@H]3CC[C@@H]4C[C@H](O)CC[C@]4(C)[C@H]3CC[C@]12C [pregnanolone, 1-[(1S,3aS,3bR,5aR,7R,9aS,9bS,11aS)-7-Hydroxy-9a,11a-dimethylhexadecahydro-1H-cyclopenta[a]phenanthren-1-yl]ethan-1-one, reference compound]
PA of peak response ([4]; 2 μM pregnanolone alone): 0.005 ± 0.002
